Values quoted from earlier work as cited in patent US20260014105A1, “POWDER MIXTURE COMPRISING REPARIXIN” (Dompe' Farmaceutici SPA, priority 2022, published 2026).

System: hospitalized patients with severe COVID-19 pneumonia

CC(C)Cc1ccc([C@@H](C)C(=O)NS(C)(=O)=O)cc1 [reparixin, R-(−)-2-(4-isobutylphenyl)propionyl methansulfonamide]
Clinical outcomes compared with the standard of care: improved clinical outcomes
